Source: ChEMBL document CHEMBL3046773 (Med Chem Res, 2013)

Molecular target: Voltage-dependent L-type calcium channel subunit alpha-1C (Cavia porcellus, UniProt O35505)
Assay: Antagonist activity at calcium channel in Cavia porcellus (guinea pig) ileum assessed as inhibition of KCl-induced muscle contraction at 10 mM; call rule not given here
Assay type: tissue-based

Voltage-dependent L-type calcium channel subunit alpha-1C, sequence (O35505 whole entry): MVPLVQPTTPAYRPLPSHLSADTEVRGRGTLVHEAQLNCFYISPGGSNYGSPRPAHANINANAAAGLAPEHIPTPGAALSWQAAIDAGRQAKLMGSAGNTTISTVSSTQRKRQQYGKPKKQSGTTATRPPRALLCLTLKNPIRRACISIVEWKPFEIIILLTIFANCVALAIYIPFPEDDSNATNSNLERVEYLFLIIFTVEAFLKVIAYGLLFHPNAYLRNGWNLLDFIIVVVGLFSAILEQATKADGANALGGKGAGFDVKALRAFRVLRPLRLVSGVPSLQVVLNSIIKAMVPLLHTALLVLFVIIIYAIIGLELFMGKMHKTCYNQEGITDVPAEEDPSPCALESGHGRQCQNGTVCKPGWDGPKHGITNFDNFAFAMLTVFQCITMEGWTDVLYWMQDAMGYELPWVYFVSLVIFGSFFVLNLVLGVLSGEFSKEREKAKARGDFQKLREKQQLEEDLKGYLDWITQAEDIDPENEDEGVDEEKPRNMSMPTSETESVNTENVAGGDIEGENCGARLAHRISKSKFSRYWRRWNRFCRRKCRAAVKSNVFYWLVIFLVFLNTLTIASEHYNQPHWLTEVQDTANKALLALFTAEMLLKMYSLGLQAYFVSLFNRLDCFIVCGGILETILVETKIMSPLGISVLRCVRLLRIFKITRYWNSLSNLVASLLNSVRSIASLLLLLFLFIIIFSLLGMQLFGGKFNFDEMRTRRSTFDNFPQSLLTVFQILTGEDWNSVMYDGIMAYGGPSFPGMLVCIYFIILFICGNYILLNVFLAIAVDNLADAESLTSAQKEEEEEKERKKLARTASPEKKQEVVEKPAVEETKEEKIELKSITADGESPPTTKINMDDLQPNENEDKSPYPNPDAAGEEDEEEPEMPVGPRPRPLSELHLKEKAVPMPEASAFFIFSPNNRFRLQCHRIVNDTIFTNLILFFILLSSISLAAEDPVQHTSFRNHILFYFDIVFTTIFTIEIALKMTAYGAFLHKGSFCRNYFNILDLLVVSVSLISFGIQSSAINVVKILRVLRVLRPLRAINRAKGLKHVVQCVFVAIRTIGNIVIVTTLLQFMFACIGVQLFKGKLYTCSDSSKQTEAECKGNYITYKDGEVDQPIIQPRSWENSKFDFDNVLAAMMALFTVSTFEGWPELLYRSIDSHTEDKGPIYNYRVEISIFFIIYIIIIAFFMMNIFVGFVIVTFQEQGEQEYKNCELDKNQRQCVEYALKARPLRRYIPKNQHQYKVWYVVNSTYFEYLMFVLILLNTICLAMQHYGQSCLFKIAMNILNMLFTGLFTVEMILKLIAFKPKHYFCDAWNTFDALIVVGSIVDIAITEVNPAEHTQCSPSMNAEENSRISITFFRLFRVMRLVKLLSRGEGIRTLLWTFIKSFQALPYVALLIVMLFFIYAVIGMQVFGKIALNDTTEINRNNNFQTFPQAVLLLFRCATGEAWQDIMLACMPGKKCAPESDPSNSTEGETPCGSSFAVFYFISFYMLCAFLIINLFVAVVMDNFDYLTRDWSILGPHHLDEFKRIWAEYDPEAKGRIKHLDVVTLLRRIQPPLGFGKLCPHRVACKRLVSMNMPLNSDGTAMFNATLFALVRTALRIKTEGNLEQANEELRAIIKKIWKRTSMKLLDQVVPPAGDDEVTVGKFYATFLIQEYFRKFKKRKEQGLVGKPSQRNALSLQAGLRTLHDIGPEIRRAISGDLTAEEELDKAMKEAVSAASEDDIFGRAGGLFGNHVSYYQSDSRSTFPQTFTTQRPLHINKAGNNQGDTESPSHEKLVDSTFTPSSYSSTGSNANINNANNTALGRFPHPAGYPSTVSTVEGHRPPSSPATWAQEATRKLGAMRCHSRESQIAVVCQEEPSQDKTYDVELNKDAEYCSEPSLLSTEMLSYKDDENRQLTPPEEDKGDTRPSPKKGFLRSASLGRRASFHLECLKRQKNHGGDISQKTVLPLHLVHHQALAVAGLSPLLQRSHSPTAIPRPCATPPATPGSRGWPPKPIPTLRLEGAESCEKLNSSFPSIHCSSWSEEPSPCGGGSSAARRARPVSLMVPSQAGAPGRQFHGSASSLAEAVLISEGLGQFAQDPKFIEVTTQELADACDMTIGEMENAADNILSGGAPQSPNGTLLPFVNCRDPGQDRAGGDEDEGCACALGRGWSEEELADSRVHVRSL

## COC(=O)C1=C(C)NC(C)=C(C(=O)OC)C1c1ccccc1[N+](=O)[O-] [NIFEDIPINE]
  inhibition (INH): Active
